Results taken from US7841299B2, “Method and apparatus for applying hoof care, sanitizing, or treatment solutions to the feet or hooves of animals” (Jot Holdings, LLC, priority 2007, dated 2010).

System: active lesions (interdigital dermatitis or hairy warts)

With O=S(=O)([O-])[O-].[Cu+2] [copper sulfate] as the compound, how does the “lesions per week, average” value (50 gallons water + 25 lbs copper sulfate per 400 cows, once per day, 4 days per week, 1,600 cow dairy) read?
The value was 22 lesions per week.

And the “lesions per week, high” value (same regimen, 8 week record)?
The value was 36.

And the “lesions per week, low” value (same regimen, 8 week record)?
Its value is 13.
